Reference: US9145375B2, “Quinazolinone compounds” (PRANA BIOTECHNOLOGY LIMITED, priority 2008, dated 2015)
Values joined by “and” are separate entries in the source; they are usually repeats but may differ in a detail not shown here. Identical values can stand only once.

Experiments:
[1] = biological target: T1, CYP1A2 (Homo sapiens, UniProt P05177); experiment: CYP450 isoform inhibition, recombinant enzymes, analysis by LCMS: CYP1A2; format: in vitro ADME
T1 construct: using a specific substrate approach in human liver microsomes; from tissue; host or cells: human liver microsomes
T1 sequence (P05177 1-516): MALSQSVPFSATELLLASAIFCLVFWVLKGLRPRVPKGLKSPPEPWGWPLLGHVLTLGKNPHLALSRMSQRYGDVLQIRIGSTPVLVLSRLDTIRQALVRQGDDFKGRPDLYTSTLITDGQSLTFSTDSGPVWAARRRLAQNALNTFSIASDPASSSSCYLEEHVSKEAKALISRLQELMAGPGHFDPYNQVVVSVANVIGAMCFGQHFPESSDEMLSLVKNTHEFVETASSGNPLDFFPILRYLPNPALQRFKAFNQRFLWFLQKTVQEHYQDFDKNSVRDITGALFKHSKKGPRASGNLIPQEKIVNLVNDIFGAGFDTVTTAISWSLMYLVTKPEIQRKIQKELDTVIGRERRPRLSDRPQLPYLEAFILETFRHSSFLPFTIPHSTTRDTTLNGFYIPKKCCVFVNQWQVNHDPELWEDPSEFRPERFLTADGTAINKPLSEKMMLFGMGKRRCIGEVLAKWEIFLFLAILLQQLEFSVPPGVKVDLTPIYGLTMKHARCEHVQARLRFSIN
Experimental: CYP450 Isoform Inhibition
Microsomes containing individual recombinant human CYP450 enzymes (Supersomes™) were incubated in the presence of a fixed concentration of a probe substrate that forms a fluorescent metabolite upon CYP450-mediated metabolism.
A known inhibitor of each CYP450 isoform was included in each assay as a positive control and its IC50 was compared to literature values for acceptance of the assay.
The inherent fluorescence of the test compound was examined under the specific assay conditions for each isoform before and after the fluorometric assay to identify any compound-specific interference due to the parent compound or metabolic products. If the background fluorescence in these samples increased due to compound-specific interference, then the CYP450 inhibition samples were quantified using LC/MS assay.

[2] = Plasma Protein Binding, rat; format: in vitro ADME
[3] = Plasma Protein Binding, mouse; format: in vitro ADME
[4] = biological target: CYP2E1 (Homo sapiens, UniProt P05181); experiment: CYP450 inhibition, specific substrate approach in human liver microsomes: CYP2E1; format: in vitro ADME; design: using a specific substrate approach in human liver microsomes; from tissue; host or cells: human liver microsomes
Experimental: CYP450 Isoform Inhibition Using a Specific Substrate Approach
The present study is a “Tier 2” screen to assess potential enzyme inhibition at a test compound concentration of 20 μM using a specific substrate approach in human liver microsomes.
The substrate specific enzyme inhibition study relies on the formation of a metabolite that is mediated by a specific CYP450 isoform using human liver microsomes. In the current study, the following reactions were monitored to assess interactions with specific CYP450 isoforms. A known inhibitor of each isoform was included in each assay as a positive control. The following IC50 values have been reported in the literature using equivalent assay conditions for each CYP450 isoform:
The reaction was initiated by the addition of an NADPH-regenerating system and was quenched by the addition of acetonitrile prior to determining the concentration (and apparent rate of formation) of the specific metabolite by LC/MS.
The IC50 was deemed to be the concentration at which there was a 50% reduction in the amount of metabolite formed, relative to the maximal extent of formation.

[5] = tested on: M17; experiment: Cytotox (% viable), cells marked M17; format: cell-based, human; settings: repeat values given
[6] = tested on: Fe-DA; experiment: H2O2 assay, Fe-DA (% cf. Fe 0.4 μM/DA 50 μM); format: biochemical; settings: Fe 0.4 μM/DA 50 μM
Experimental: This fluoresence assay evaluates the ability of a test compound to inhibit the generation of hydrogen peroxide (H2O2) by iron in the presence of a reducing substrate such as ascorbic acid. In the assay, iron in the form of FeCl3 or copper is allowed to react with ascorbic acid by incubating for 1 hr at 37° C. in the presence of the fluorescing compound DCF and horseradish peroxidase. H2O2 generated by the system is assessed by measuring the specific fluorescence profile at the excitation and emission wavelengths of 485 and 530 nm respectively, in the presence of increasing concentrations of test compound. Test compounds are ranked according to their capacity to inhibit H2O2 generated by the system where lower values reflect greater ability to inhibit H2O2 production.

[7] = tested on: Neuronal cortical cells; experiment: Cytotox (% viable); Primary Neuronal Cells Neurotoxicity Assay; format: cell-based, mouse; settings: cell type not given, repeat values given
Experimental: Assay 2 (a). Primary Neuronal Cells Neurotoxicity Assays
Cortical cultures were prepared as previously described (White et al., 1998). Embryonic day 14 BL6Jx129sv mouse cortices were removed, dissected free of meninges and dissociated in 0.025% (wt/vol) trypsin. Dissociated cells were plated in 48 well culture plates at a density of 2×10^6 cells/mL in MEM with 25% (vol/vol) FCS and 5% (vol/vol) HS and incubated at 37° C., 2 hrs. Media was then replaced with Neurobasal media (Invitrogen Life Technologies) and B27 supplements (Invitrogen Life Technologies). Cultures were maintained at 37° C. in 5% CO2. Prior to experimentation, the culture medium was replaced with Neurobasal media and B27 minus antioxidants (Invitrogen Life Technologies).
Neuronal cortical cells were cultured for five days as per Assay 2 in NB media and B27 supplement.
On day six the test compounds were added to the neuronal cell cultures in NB media and B27 supplement minus antioxidants.
Test compounds were dissolved in 100% DMSO to a concentration of 2.5 mM (10 mM if excess compound was weighed out per vial—then diluted to 2.5 mM). 2.5 mM stock solution was serially diluted 1 in 10 to give working solutions of 250 uM, 25 uM, 2.5 uM. Test compounds were not added directly to cells, instead they were added to a 48 well ‘Drug Plate’ as comprised below: • Preparation of “Drug Plate”:
Well 1: 576 ul NB+B27 (no antioxidant)*+24 ul 2.5 uM test compound
Well 2: 576 ul NB+B27 (no antioxidant)+24 μl 25 uM test compound
Well 3: 576 ul NB+B27 (no antioxidant)+24 ul 250 uM test compound
Well 4: 576 ul NB+B27 (no antioxidant)+24 ul 2.5 uM test compound
Well 5: 576 ul NB+B27 (no antioxidant)+24 ul 25 uM test compound
Well 6: 576 ul NB+B27 (no antioxidant)+24 ul 250 uM test compound
Well 7: 576 ul NB+B27 (no antioxidant)+24 ul test compound diluent**
Well 8: 600 ul NB+B27 (no antioxidant)
The Drug Plate was incubated at 37° C. for 15 mins. 200 ul of each well was added in triplicate to the corresponding cell plate. The cell plate was incubated at 37° C., for 4 days, (2 compounds are tested on each plate of cells).
*NB media and B27 (no antioxidants),
**PBT diluent 10% DMSO in NB+1327 (no antioxidants)
On completion of the assay, 1/10 volume MTS was added per well of plate (ie 25 ul/250 ul). The plates were incubated at 37° C. for 2 hrs, and then absorbance was read at 560 nm.

Chain of CYP2E1 (P05181 whole entry, canonical isoform): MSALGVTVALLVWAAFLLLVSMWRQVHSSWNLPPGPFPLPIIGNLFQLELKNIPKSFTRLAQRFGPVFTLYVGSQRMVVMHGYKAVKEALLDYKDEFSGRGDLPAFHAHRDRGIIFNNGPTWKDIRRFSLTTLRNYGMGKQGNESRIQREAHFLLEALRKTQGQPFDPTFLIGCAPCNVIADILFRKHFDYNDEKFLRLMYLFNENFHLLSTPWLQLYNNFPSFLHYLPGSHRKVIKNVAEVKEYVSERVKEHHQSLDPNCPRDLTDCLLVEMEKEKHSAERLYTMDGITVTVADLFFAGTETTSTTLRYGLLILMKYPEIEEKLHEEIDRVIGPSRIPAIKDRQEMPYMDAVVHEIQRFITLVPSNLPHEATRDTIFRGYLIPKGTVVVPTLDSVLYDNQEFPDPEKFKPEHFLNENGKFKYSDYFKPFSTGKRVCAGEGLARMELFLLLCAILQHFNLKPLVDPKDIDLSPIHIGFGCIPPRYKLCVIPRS

Row | Compound | Fe-DA % cf. Fe 0.4 μM/DA 50 μM [6] [%] | Cytotox (% viable at 1 uM) [7] | Cytotox (% viable at 10 uM) [7] | other results
1 | CNCc1nc2c(O)c(Cl)cc(Cl)c2c(=O)n1C [Compound F4161] | – | – | – | IC50 [1]: 25.7 µM
2 | CCn1c(CN(C)C)nc2c(O)c(Cl)cc(Cl)c2c1=O.Cl [Compound F4268] | – | – | – | fraction unbound [2]: 0.052 to 0.055; fraction unbound [3]: 0.178 to 0.203; IC50 [4]: > 20 µM
3 | CN(C)Cc1nc2c(O)c(Cl)cc(Cl)c2c(=O)n1C [Compound F4269, 5,7-Dichloro-2-(dimethylamino)methyl-8-hydroxy-3-methylquinazolin-4(3H)-one] | – | – | – | fraction unbound [2]: 0.074 to 0.116; fraction unbound [3]: 0.582 to 0.658
4 | CCN(CC)Cc1nc2c(O)c(Cl)cc(Cl)c2c(=O)n1CC1CC1 [Compound F4385] | 86 | – | – | Cytotox (% viable at 1 uM) [5]: 99.2% and 105.0%; Cytotox (% viable at 10 uM) ([5]; 10 uM): 97.7%
5 | C#CCN(C)Cc1nc2c(O)c(Cl)cc(Cl)c2c(=O)n1CC1CC1 [Compound F4387] | 77 | – | – | Cytotox (% viable at 1 uM) [5]: 104.0% and 92.7% and 95.9% and 100.7%
6 | Br.CCn1c(CNC)nc2c(O)c(Cl)cc(Cl)c2c1=O [Compound F4486] | 56 | 97.9% and 101.4% | 52.2% and 43.3% | –
7 | CCNCc1nc2c(O)c(Cl)cc(Cl)c2c(=O)n1CC [Compound F4495] | 45 | 89.3% and 112.8% | 47.9% and 57.1% | –
8 | Br.CCNCc1nc2c(O)c(Cl)cc(Cl)c2c(=O)n1C [Compound F4496] | 45 | 102.7% and 114.6% | 59.4% and 101.2% | –
